Where two headings read alike, the source gives them in different places.
Legend:
[1] = tested on: PC-3 human prostatic cancer cells; experiment: Alamar Blue cell proliferation assay, PC3; assay type: cell-based
Protocol: (§1) A representative cell-proliferation assay protocol using Alamar Blue dye (stored at 4° C., use 20 ul per well) is described hereafter.
(§2) 96-Well Plate Setup and Compound Treatment
(§3) a. Split and trypsinize cells.
(§4) b. Count cells using hemocytometer.
(§5) c. Plate 4,000-5,000 cells per well in 100 μl of medium and seed into a 96-well plate according to the following plate layout. Add cell culture medium only to wells B10 to B12. Wells B1 to B9 have cells but no compound added.
(§6) d. Add 100 μl of 2× drug dilution to each well in a concentration shown in the plate layout above. At the same time, add 100 μl of media into the control wells (wells 1310 to B12). Total volume is 200 μl/well.
(§7) e. Incubate four (4) days at 37° C., 5% CO2 in a humidified incubator.
(§8) f. Add 20 μl Alamar Blue reagent to each well.
(§9) g. Incubate for four (4) hours at 37° C., 5% CO2 in a humidified incubator.
(§10) h. Record fluorescence at an excitation wavelength of 544 nm and emission wavelength of 590 nm using a microplate reader.
(§11) In the assays, cells are cultured with a test compound for approximately four days, the dye is then added to the cells and fluorescence of […] dye is detected after approximately four hours. Different types of cells can be utilized in the assays (e.g., HCT-116 human colorectal carcinoma cells, PC-3 human prostatic cancer cells and MiaPaca human pancreatic carcinoma cells).

[2] = target: recombinant PIM-1 (Homo sapiens, UniProt P11309); experiment: PIM-1 kinase assay (radiometric, 15 uM ATP, DMSO 4%); assay type: biochemical; settings: for IC50: Table 3, DMSO 4%, read-out: PIM1: IC50 (DMSO 4%); for inhibition at 0.5 µM: Table 5, compound at 500 nM, read-out: PIM1: % inh 500 nM
[3] = tested on: MiaPaca human pancreatic carcinoma cells; experiment: Alamar Blue cell proliferation assay, MiaPaCa; assay type: cell-based
Protocol: as §1, §2, §3, §4, §5, §6, §7, §8, §9, §10, §11

[4] = tested on: MV-4-11; experiment: Alamar Blue cell proliferation assay, MV-4-11; assay type: cell-based; settings: Homo sapiens
Protocol: as §1, §2, §3, §4, §5, §6, §7, §8, §9, §10, §11

[5] = tested on: MDAMB-231; experiment: Alamar Blue cell proliferation assay, MDAMB-231; assay type: cell-based; settings: Homo sapiens, MDA-MB-231, Table 3, read-out: AB: MDAMB-231
Protocol: as §1, §2, §3, §4, §5, §6, §7, §8, §9, §10, §11

[6] = tested on: K-562; experiment: Alamar Blue cell proliferation assay, K-562; assay type: cell-based; settings: Homo sapiens
Protocol: as §1, §2, §3, §4, §5, §6, §7, §8, §9, §10, §11

[7] = tested on: HCT-116 human colorectal carcinoma cells; experiment: Alamar Blue cell proliferation assay, HCT-116; assay type: cell-based; settings: Table 5, read-out: AB: HCT-116 IC50
Protocol: as §1, §2, §3, §4, §5, §6, §7, §8, §9, §10, §11

[8] = MIA PaCa-2, Table 3, read-out: AB: MiaPaCa
[9] = MV4-11, Table 3, read-out: AB: MV-4-11
[10] = K562, Table 3, read-out: AB: K-562
[11] = Table 5, read-out: AB: PC3 IC50
[12] = MIA PaCa-2, Table 5, read-out: AB: MiaPaCa IC50
[13] = MV4-11, Table 5, read-out: AB: MV-4-11 IC50
[14] = K562, Table 5, read-out: AB: K-562 IC50

Chain of recombinant PIM-1 (P11309 whole entry): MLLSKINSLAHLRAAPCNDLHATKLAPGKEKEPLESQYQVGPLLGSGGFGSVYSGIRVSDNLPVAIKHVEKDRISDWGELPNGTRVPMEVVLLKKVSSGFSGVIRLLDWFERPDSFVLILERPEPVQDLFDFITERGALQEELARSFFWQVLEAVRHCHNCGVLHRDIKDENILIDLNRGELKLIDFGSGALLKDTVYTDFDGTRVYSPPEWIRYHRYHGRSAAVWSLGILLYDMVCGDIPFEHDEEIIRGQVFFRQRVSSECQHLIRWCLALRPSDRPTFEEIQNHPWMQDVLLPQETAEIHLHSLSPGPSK

SMILES	IC50 ([1]; Table 3, read-out: AB: PC3)	IC50 [2]	IC50 [3, 8]	IC50 [4, 9]	IC50 [5]	IC50 [6, 10]	IC50 [1, 11]	IC50 [3, 12]	IC50 [4, 13]	inhibition at 0.5 µM [2]	IC50 [6, 14]	IC50 [7]
NS(=O)(=O)c1ccc(-c2ccc(/C=C3/C(=O)Nc4ccc(Cl)cc43)o2)cc1	> 10 µM	< 1 µM										
O=C1Nc2ccc(Cl)cc2/C1=C\c1ccc(-c2cccc(-c3nnc[nH]3)c2)o1	> 30 µM	< 1 µM	> 10 µM	> 10 µM	> 10 µM	> 10 µM						
NC(=O)c1ccc(-c2ccc(/C=C3\C(=O)Nc4ccc(Cl)cc43)o2)cc1	> 30 µM	< 1 µM	> 10 µM		> 10 µM	> 10 µM						
O=C1Nc2ccc(Cl)cc2/C1=C\c1ccc(-c2ccc(OCCN3CCOCC3)cc2)o1	> 30 µM	< 1 µM	> 10 µM	> 10 µM	> 10 µM	> 10 µM						
CCN(CC)CCNC(=O)c1ccc(-c2ccc(/C=C3/C(=O)Nc4ccc(Cl)cc43)o2)cc1 [drawing 216]		< 1 µM	> 10 µM	> 1 µM	> 10 µM	> 10 µM						
O=C1Nc2ccc(Cl)cc2/C1=C/c1ccc(-c2cnn(CCN3CCOCC3)c2)o1	> 30 µM	< 1 µM	> 10 µM	0.198 µM	> 10 µM	2.32 µM						
CS(=O)(=O)Nc1ccc(-c2ccc(/C=C3\C(=O)Nc4ccc(Cl)cc43)o2)cc1	11 µM	< 1 µM	> 10 µM	2.22 µM	> 10 µM	2.88 µM						

The next lines start with the values.

IC50 ([1]; Table 3, read-out: AB: PC3)	IC50 [2]	IC50 [3, 8]	IC50 [4, 9]	IC50 [5]	IC50 [6, 10]	IC50 [1, 11]	IC50 [3, 12]	IC50 [4, 13]	inhibition at 0.5 µM [2]	IC50 [6, 14]	IC50 [7]	SMILES
						> 10 µM	> 10 µM	0.315 µM	-22.7%	> 10 µM	4.31 µM	CN1CCCC(NC(=O)c2cccc(-c3coc(/C=C4/C(=O)Nc5ccccc54)c3)c2)C1 (centres unmarked)
> 10 µM	< 1 µM											CN1CCCN(C(=O)c2cccc(-c3ccc(/C=C4/C(=O)Nc5ccc(F)cc54)o3)c2)CC1
						> 10 µM	9.23 µM	0.761 µM	-10.9%	> 10 µM	7.82 µM	CCN(CC)CCNC(=O)c1cccc(-c2coc(/C=C3/C(=O)Nc4ccccc43)c2)c1
						> 10 µM	> 10 µM	0.271 µM	11.5%	2.44 µM	3.6 µM	CCN(CC)CCNC(=O)c1cccc(-c2coc(/C=C3/C(=O)Nc4ccc(F)cc43)c2)c1 [drawing 254]
						> 10 µM	9.37 µM	2.14 µM	-38.8%	0.077 µM	7.01 µM	CN(C)C1CCN(C(=O)c2cccc(-c3coc(/C=C4/C(=O)Nc5ccccc54)c3)c2)CC1
						> 10 µM	> 10 µM	0.627 µM	9.42%	1.65 µM	4.47 µM	CN1CCCCC1CNC(=O)c1cccc(-c2coc(/C=C3/C(=O)Nc4ccc(F)cc43)c2)c1 (centres unmarked) [drawing 253]
						7 µM	> 10 µM	1.01 µM	6.11%	3.12 µM	4.65 µM	CN1CCCC(NC(=O)c2cccc(-c3coc(/C=C4/C(=O)Nc5ccc(F)cc54)c3)c2)C1 (centres unmarked) [drawing 249]
						1.65 µM	2.4 µM	0.12 µM	-28.9%	0.099 µM	2.49 µM	CN1CCCCC1CNC(=O)c1cccc(-c2coc(/C=C3/C(=O)Nc4ccccc43)c2)c1 (centres unmarked)
